Source: ChEMBL document CHEMBL4130444, “1,4-Naphthoquinones as inhibitors of Itch, a HECT domain-E3 ligase, and tumor growth suppressors in multiple myeloma” (Eur J Med Chem, 2017)

Experiments:
[1] = system: MDA-MB-231; assay: Antiproliferative activity against human MDA-MB-231 cells incubated for 48 hrs by SRB assay; format: functional; settings: MDA-MB-231, 48 h
[2] = system: HCT-116; assay: Antiproliferative activity against human HCT116 cells incubated for 48 hrs by SRB assay; format: functional; settings: HCT-116, 48 h

| GI50 [1] [µM] | GI50 [2] [µM] | SMILES |
| --- | --- | --- |
| 9.2 | 5.5 | O=C(Nc1cnccn1)c1ccc(CNC2=C(Cl)C(=O)c3ccccc3C2=O)cc1 |
| > 10 | > 10 | O=C(Nc1cccnc1)c1ccc(CNC2=C(Cl)C(=O)c3ccccc3C2=O)cc1 |

Further lines, the molecule ahead of its results:

| SMILES | GI50 [1] [µM] | GI50 [2] [µM] |
| --- | --- | --- |
| O=C(Nc1ccc2ncccc2c1)c1ccc(CNC2=C(Cl)C(=O)c3ccccc3C2=O)cc1 | > 10 | 6.8 |
| O=C(Nc1ccccc1)c1ccc(CNC2=C(Cl)C(=O)c3ccccc3C2=O)cc1 | > 10 | > 10 |
| O=C(Nc1ccc2[nH]ncc2c1)c1ccc(CNC2=C(Cl)C(=O)c3ccccc3C2=O)cc1 | > 10 | > 10 |
